Results on 36 compounds are retold here after patent US10829473B2, “Modulators of the cystic fibrosis transmembrane conductance regulator protein and methods of use” (AbbVie Overseas S.Á.R.L., priority 2017, dated 2020).

Where two headings read alike, the source gives them in different places. A value given as a limit tells only on which side of the number the result lay.

Usually EC50 stands for the midpoint of the concentration-response curve.

The experiment deals with T1, F508delCFTR (Homo sapiens, UniProt P13569, DEL508-508).
T1 construct: expressed in transfected cells; host or cells: CFBE41o- human lung derived epithelial cells (CFBE41o-F508delCFTR-HRP), doxycycline-inducible
The experiment is described as follows: Cell Surface Expression-Horse Radish Peroxidase (CSE-HRP) Assay.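 As to EC50 (with co-corrector): co-corrector chromenyl benzoic acid corrector at 2 or 3 µM.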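 As to Maximum % activity (without co-corrector): % of on-plate positive control chromenyl benzoic acid corrector at 2 or 3 µM.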 In kind it is cell-based. The following applies: for Emax: read-out: Maximum % activity (without co-corrector). The method, boiled down:
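Corrector compounds were given as 8-point 3-fold series from 20 or 30 μM, with or without a 2 μM co-corrector, for 18-24 h at 33 °C. Surface HRP was read by luminol luminescence as % of positive control; variable-Hill-slope sigmoidal fitting gave EC50 from triplicate plates.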

Setting [1] is: test compound alone, without co-corrector, read-out: EC50 (without co-corrector).
[2] abbreviates: with co-corrector, maximum at any tested concentration.
Setting [3] is: with co-corrector, read-out: EC50 (with co-corrector).
The mark [4] stands for this setting: without co-corrector, maximum at any tested concentration.

T1 sequence (P13569 with tags, fused parts or gaps DEL508-508): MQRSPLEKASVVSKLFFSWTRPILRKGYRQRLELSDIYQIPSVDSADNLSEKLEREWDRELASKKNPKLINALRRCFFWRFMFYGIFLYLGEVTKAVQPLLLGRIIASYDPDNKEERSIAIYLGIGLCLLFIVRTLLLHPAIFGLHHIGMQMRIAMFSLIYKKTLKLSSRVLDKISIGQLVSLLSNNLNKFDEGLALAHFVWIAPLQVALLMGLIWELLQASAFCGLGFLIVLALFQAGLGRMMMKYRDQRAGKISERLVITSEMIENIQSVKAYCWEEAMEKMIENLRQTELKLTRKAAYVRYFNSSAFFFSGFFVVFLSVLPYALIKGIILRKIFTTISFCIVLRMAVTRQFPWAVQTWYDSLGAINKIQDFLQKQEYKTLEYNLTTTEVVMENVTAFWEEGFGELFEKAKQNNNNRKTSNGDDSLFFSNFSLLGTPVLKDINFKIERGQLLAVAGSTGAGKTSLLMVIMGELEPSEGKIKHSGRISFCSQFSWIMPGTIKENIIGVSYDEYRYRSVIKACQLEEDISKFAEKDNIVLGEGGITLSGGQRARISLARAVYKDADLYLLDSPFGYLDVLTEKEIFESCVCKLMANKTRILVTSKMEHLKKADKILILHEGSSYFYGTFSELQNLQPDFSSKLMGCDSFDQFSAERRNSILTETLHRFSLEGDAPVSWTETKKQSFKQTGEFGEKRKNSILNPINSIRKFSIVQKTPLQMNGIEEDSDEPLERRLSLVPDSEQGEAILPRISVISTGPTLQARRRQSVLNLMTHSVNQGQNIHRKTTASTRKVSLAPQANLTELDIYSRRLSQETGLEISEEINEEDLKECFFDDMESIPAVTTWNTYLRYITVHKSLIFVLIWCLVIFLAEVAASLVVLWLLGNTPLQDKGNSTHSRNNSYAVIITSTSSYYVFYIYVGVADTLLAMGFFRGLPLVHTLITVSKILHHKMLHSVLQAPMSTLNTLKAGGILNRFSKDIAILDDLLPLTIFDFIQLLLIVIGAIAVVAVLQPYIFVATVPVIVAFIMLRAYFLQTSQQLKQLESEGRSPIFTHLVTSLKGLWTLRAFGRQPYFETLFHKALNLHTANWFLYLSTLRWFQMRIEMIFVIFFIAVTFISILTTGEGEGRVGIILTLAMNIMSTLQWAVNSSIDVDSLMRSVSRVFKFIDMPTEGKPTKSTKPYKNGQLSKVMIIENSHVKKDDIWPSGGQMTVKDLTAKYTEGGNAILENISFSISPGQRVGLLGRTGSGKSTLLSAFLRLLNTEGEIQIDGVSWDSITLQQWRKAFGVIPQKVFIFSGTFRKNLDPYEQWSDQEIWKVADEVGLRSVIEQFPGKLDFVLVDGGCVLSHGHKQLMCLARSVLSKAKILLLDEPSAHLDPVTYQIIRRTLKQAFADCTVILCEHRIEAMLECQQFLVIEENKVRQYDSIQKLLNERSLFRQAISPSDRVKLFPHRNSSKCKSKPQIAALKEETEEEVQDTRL

For the compound `COc1cccc(C2(C(=O)NS(=O)(=O)c3cccc4ccccc34)CC2)c1` [II-1], the EC50 fell in the range of 3 to 10 µM under setting [1] and 3 to 10 µM under setting [3]. Also, the “Maximum % activity (with co-corrector)” value under setting [2] is recorded as “+++ (≥350)”. Under setting [4], the Emax was greater than 150%.
For the compound `COc1cc(C2(C(=O)NS(=O)(=O)c3cccc4ccccc34)CC2)ccc1C` [II-2], the concentration for a half-maximal effect (EC50) reads like this: under setting [1], 3 to 10 µM; under setting [3], 3 to 10 µM. In addition, the “Maximum % activity (with co-corrector)” value under setting [2] was “+++ (≥350)”. For the same compound, the Emax under setting [4] is greater than 150%.
`O=C(NS(=O)(=O)c1cccc2ncccc12)C1(c2ccccc2OC(F)(F)F)CCC1` [II-3]: the 50% effective concentration (EC50) was 3 to 10 µM under setting [1] and less than 3 µM under setting [3]. Also, the “Maximum % activity (with co-corrector)” value under setting [2] is recorded as “+++ (≥350)”. In addition, the Emax under setting [4] is greater than 150%.
Taken in the same sequence, the figures for `CCn1nc(C)cc1C1(C(=O)NS(=O)(=O)c2cccc3ccccc23)CC1` [II-4] were 3 to 10 µM, 3 to 10 µM, “+++ (≥350)” and 50 to 150%.
Turning to `CCn1nc(C2(C(=O)NS(=O)(=O)c3cccc4ccccc34)CC2)cc1C` [II-5], the EC50 runs as follows: under setting [1], 3 to 10 µM; under setting [3], 3 to 10 µM. The “Maximum % activity (with co-corrector)” value under setting [2] was “++ (≥150 and <350)”. Besides, under setting [4], the Emax is less than 50%.
For the compound `COc1ccccc1C1(C(=O)NS(=O)(=O)c2cccc3ncccc23)CCC1` [II-6], the EC50 under setting [1] was 3 to 10 µM and the EC50 under setting [3] was less than 3 µM. The “Maximum % activity (with co-corrector)” value under setting [2] is “+++ (≥350)”. In addition, under setting [4], the Emax was greater than 150%.
In the case of `COc1ncc(C(F)(F)F)cc1C1(C(=O)NS(=O)(=O)c2cccc3ncccc23)CC1` [II-7], the EC50 under setting [1] lay within 3 to 10 µM and the EC50 under setting [3] was less than 3 µM. In addition, under setting [2], the “Maximum % activity (with co-corrector)” value was “+++ (≥350)”. The Emax under setting [4] was greater than 150%.
Take `COc1ncc(C(F)(F)F)cc1C1(C(=O)NS(=O)(=O)c2cccc3c2CCCN3)CC1` [II-8]: the EC50 is 3 to 10 µM under setting [1] and less than 3 µM under setting [3]. The “Maximum % activity (with co-corrector)” value under setting [2] is recorded as “+++ (≥350)”. Besides, the Emax under setting [4] was greater than 150%.
Taken in the same sequence, the figures for `COc1ncc(C(F)(F)F)cc1C1(C(=O)NS(=O)(=O)c2cccc3nc(C)ccc23)CC1` [II-9] were 3 to 10 µM, less than 3 µM, “+++ (≥350)” and greater than 150%.
With `COc1ncc(C)cc1C1(C(=O)NS(=O)(=O)c2cccc3c2CCCN3)CC1` [II-10], the EC50 by setting is: under setting [1], 3 to 10 µM; under setting [3], 3 to 10 µM. For the same compound, the “Maximum % activity (with co-corrector)” value under setting [2] is recorded as “+++ (≥350)”. Moreover, the Emax under setting [4] is greater than 150%.
For `COc1ncc(C2CCC2)cc1C1(C(=O)NS(=O)(=O)c2cccc3ncn(C)c23)CC1` [II-12], the EC50 under setting [1] fell in the range of 3 to 10 µM and the concentration giving a half-maximal response (EC50) under setting [3] was less than 3 µM. Also, the “Maximum % activity (with co-corrector)” value under setting [2] is “+++ (≥350)”. For the same compound, under setting [4], the Emax is greater than 150%.
Taken in the same sequence, the figures for `COc1ncc(C2CCC2)cc1C1(C(=O)NS(=O)(=O)c2cccc3cnn(C)c23)CC1` [II-13] were less than 3 µM, less than 3 µM, “+++ (≥350)” and greater than 150%.
With `COc1ncc(C2CCC2)cc1C1(C(=O)NS(=O)(=O)c2cccc3c2ccn3C)CC1` [II-14], the EC50 is less than 3 µM under setting [1] and less than 3 µM under setting [3]. Further, the “Maximum % activity (with co-corrector)” value under setting [2] was “+++ (≥350)”. For the same compound, the Emax under setting [4] is greater than 150%.
In the case of `COc1ncc(C2CCC2)cc1C1(C(=O)NS(=O)(=O)c2cccc3[nH]ncc23)CC1` [II-15], the EC50 reads like this: under setting [1], 3 to 10 µM; under setting [3], less than 3 µM. Moreover, under setting [2], the “Maximum % activity (with co-corrector)” value is “+++ (≥350)”. Moreover, the Emax under setting [4] was greater than 150%.
The like results for `COc1ncc(C2CCC2)cc1C1(C(=O)NS(=O)(=O)c2cccc3ncc(C)n23)CC1` [II-16] were, in that order, 3 to 10 µM, less than 3 µM, “+++ (≥350)” and greater than 150%.
Taken in the same sequence, the figures for `COc1ncc(C(F)(F)F)cc1C1(C(=O)NS(=O)(=O)c2cccc3ccn(C)c23)CC1` [II-17] were less than 3 µM, less than 3 µM, “+++ (≥350)” and greater than 150%.
The like results for `COc1ncc(C(F)(F)F)cc1C1(C(=O)NS(=O)(=O)c2cccc3c2ccn3C)CC1` [II-18] were, in that order, 3 to 10 µM, less than 3 µM, “+++ (≥350)” and greater than 150%.
In the case of `COc1ncc(C(F)(F)F)cc1C1(C(=O)NS(=O)(=O)c2cccc3ncc(C)n23)CC1` [II-19], the EC50 runs as follows: under setting [1], 3 to 10 µM; under setting [3], 3 to 10 µM. Moreover, under setting [2], the “Maximum % activity (with co-corrector)” value was “+++ (≥350)”. Besides, the Emax under setting [4] fell in the range of 50 to 150%.
As for `COc1ccc(C(C)C)cc1C1(C(=O)NS(=O)(=O)c2cccc3c2CCCN3)CCC1` [II-20], the EC50 is, setting by setting: under setting [1], 3 to 10 µM; under setting [3], less than 3 µM. Moreover, under setting [2], the “Maximum % activity (with co-corrector)” value is reported as “+++ (≥350)”. Further, under setting [4], the Emax is greater than 150%.
Taken in the same sequence, the figures for `COc1ccc(C2CCCC2)cc1C1(C(=O)NS(=O)(=O)c2cccc3c2CCCN3)CCC1` [II-21] were less than 3 µM, less than 3 µM, “+++ (≥350)” and greater than 150%.
The like results for `CCC(C)c1ccc(OC)c(C2(C(=O)NS(=O)(=O)c3cccc4c3CCCN4)CCC2)c1` (stereo not drawn) [II-22] were, in that order, 3 to 10 µM, less than 3 µM, “+++ (≥350)” and greater than 150%.
In the case of `COc1ccc(OC2CCOC2)cc1C1(C(=O)NS(=O)(=O)c2cccc3ncccc23)CC1` (stereo not drawn) [II-23], the EC50 is, setting by setting: under setting [1], 3 to 10 µM; under setting [3], 3 to 10 µM. For the same compound, the “Maximum % activity (with co-corrector)” value under setting [2] is “+++ (≥350)”. For the same compound, under setting [4], the Emax was in the range of 50 to 150%.
For the compound `O=C(NS(=O)(=O)c1cccc2ncccc12)C1(c2cc(OC(F)(F)F)ccc2Cl)CC1` [II-24], the EC50 is, setting by setting: under setting [1], less than 3 µM; under setting [3], less than 3 µM. In addition, under setting [2], the “Maximum % activity (with co-corrector)” value is given as “+++ (≥350)”. Also, under setting [4], the Emax was greater than 150%.
`O=C(NS(=O)(=O)c1cccc2c1CCCN2)C1(c2cc(OC(F)(F)F)ccc2Cl)CC1` [II-25]: the EC50 under setting [1] lay in the range of 3 to 10 µM and the EC50 under setting [3] is less than 3 µM. Besides, the “Maximum % activity (with co-corrector)” value under setting [2] is listed as “+++ (≥350)”. Also, under setting [4], the Emax was greater than 150%.
On to `COc1ccc(C(C)C)cc1C1(C(=O)NS(=O)(=O)c2cccc3c2CCCN3)CC1` [II-26], for which the EC50 reads like this: under setting [1], less than 3 µM; under setting [3], less than 3 µM. For the same compound, the “Maximum % activity (with co-corrector)” value under setting [2] is on record as “+++ (≥350)”. Further, under setting [4], the Emax was greater than 150%.
With `COc1cc(F)c(C(C)C)cc1C1(C(=O)NS(=O)(=O)c2cccc3c2CCCN3)CC1` [II-27], the EC50 was less than 3 µM under setting [1] and less than 3 µM under setting [3]. Also, the “Maximum % activity (with co-corrector)” value under setting [2] is recorded as “+++ (≥350)”. The Emax under setting [4] is greater than 150%.
For the compound `COc1ccc(C(F)(F)F)cc1C1(C(=O)NS(=O)(=O)c2cccc3c2CCCN3)CC1` [II-28], the EC50 by setting is: under setting [1], less than 3 µM; under setting [3], less than 3 µM. Under setting [2], the “Maximum % activity (with co-corrector)” value is reported as “+++ (≥350)”. Besides, under setting [4], the Emax is greater than 150%.
In the case of `COC(=O)C1(c2ccc(OC)c(C3(C(=O)NS(=O)(=O)c4cccc5ncccc45)CC3)c2)CC1` [II-30], the EC50 is 3 to 10 µM under setting [1] and less than 3 µM under setting [3]. The “Maximum % activity (with co-corrector)” value under setting [2] is “+++ (≥350)”. Further, the Emax under setting [4] is greater than 150%.
Take `COC(=O)c1ccc(OC)c(C2(C(=O)NS(=O)(=O)c3cccc4ncccc34)CC2)c1` [II-31]: the Emax is greater than 150%. Besides, the EC50 under setting [1] was 3 to 10 µM. For the same compound, the “Maximum % activity (with co-corrector)” value under setting [2] is given as “+++ (≥350)”. Besides, the EC50 under setting [3] is less than 3 µM.
Taken in the same sequence, the figures for `COC(=O)c1ccc(OC)c(C2(C(=O)NS(=O)(=O)c3cccc4ccccc34)CC2)c1` [II-32] were greater than 150%, 3 to 10 µM, “+++ (≥350)” and less than 3 µM.
Turning to `COc1ncc(C2CCC2)c(C)c1C1(C(=O)NS(=O)(=O)c2cccc3nc(C)ccc23)CC1` [II-33], the EC50 under setting [1] lay in the range of 3 to 10 µM and the EC50 under setting [3] is less than 3 µM. Besides, under setting [2], the “Maximum % activity (with co-corrector)” value is “+++ (≥350)”. Besides, the Emax under setting [4] was greater than 150%.
Taken in the same sequence, the figures for `COc1cccc(C)c1C1(C(=O)NS(=O)(=O)c2cccc3ncccc23)CC1` [II-35] were 3 to 10 µM, less than 3 µM, “+++ (≥350)” and greater than 150%.
`COc1ccc(C)c(C)c1C1(C(=O)NS(=O)(=O)c2cccc3c2CCCN3)CC1` [II-36]: the EC50 was less than 3 µM under setting [1] and less than 3 µM under setting [3]. The “Maximum % activity (with co-corrector)” value under setting [2] is reported as “+++ (≥350)”. The Emax under setting [4] is greater than 150%.
Consider `COc1ccc(C2CC2)c(C)c1C1(C(=O)NS(=O)(=O)c2cccc3c2CCCN3)CC1` [II-37], for which the EC50 reads like this: under setting [1], less than 3 µM; under setting [3], less than 3 µM. Moreover, the “Maximum % activity (with co-corrector)” value under setting [2] was “+++ (≥350)”. Besides, the Emax under setting [4] was greater than 150%.
As for `COc1ncc(C2CCC2)c(C)c1C1(C(=O)NS(=O)(=O)c2cccc3c2CCCN3)CC1` [II-38], the EC50 was 3 to 10 µM under setting [1] and less than 3 µM under setting [3]. Moreover, the “Maximum % activity (with co-corrector)” value under setting [2] was “+++ (≥350)”. For the same compound, the Emax under setting [4] is greater than 150%.
The like results for `COc1ccc(C)c(OC)c1C1(C(=O)NS(=O)(=O)c2cccc3ccc(C)nc23)CC1` [II-39] were, in that order, less than 3 µM, less than 3 µM, “+++ (≥350)” and 50 to 150%.
